Experiment: Pharmacokinetics after intravenous and oral administration in fasted Beagle dogs
Type: in vivo
Conditions: compared with the compound of example 408 of WO 9723508
Method: The pharmakokinetic data were obtained by the following procedure:
The pharmacokinetics of the test compounds were Investigated in fasted Beagle dogs.
Intravenous and oral administration of the test compound, in 5% glucose solution, was separated by a one-week washout.
Blood samples were collected immediately before drug administration (time zero) and than 0.08, 0.25, 0.50, 0.75, 1.0, 1.5. 2.0, 3.0, 4.0, 5.0, and 6.0 hours after administration.
The plasma samples were stored frozen (<-18°C) pending analysis.
An HPLC method with solid phase extraction and W detection was used for the quantification of the compound in plasma.
The pharmacokinetic parameters for the compounds were calculated by non-compartmental methods using the PC based pharmacokinetic software WinNonlin, version 1.1 (Scientific Consulting Inc., Apex, NC, USA).

## CN(CCc1ccccn1)C(=O)[C@@H](Cc1ccccc1)N(C)C(=O)[C@@H](Cc1ccc2ccccc2c1)N(C)C(=O)/C=C/CC(C)(C)N [Example 1, (2E)-5-Amino-5-methylhex-2-enoic acid N-methyl-N-[(1R)-1-(N-methyl-N-{(1R)-1-[N-methyl-N-(2-(2-pyridinyl)ethyl)carbamoyl]-2-phenylethyl}carbamoyl)-2-(2-naphthyl)ethyl]amide]
Administration in 5% glucose solution
  plasma half-life: shorter plasma half-life
Oral vs intravenous administration in 5% glucose solution
  oral bioavailability: better oral bioavailability
